What follows are compounds tested against ER (Homo sapiens (Human), UniProt P03372) (assay: Western blot analysis (Compounds B1-B278)). Settings: ER degradation by traditional Western blot; DC50 classes.
Format: cell-based
Experimental: Western Blot Analysis. The cells that are treated with the compounds are lysed in Radioimmunoprecipitation Assay Protein Lysis and Extraction Buffer (e.g., 25 mmol/L Tris.HCl, pH 7.6, 150 mmol/L NaCl, 1% Nonidet P-40, 1% sodium deoxycholate, and 0.1% sodium dodecyl sulfate) containing proteinase inhibitor cocktail. Equal amounts of total protein are electrophoresed through 10% SDS-polyacrylamide gels after determination of protein concentration by BCA assay. The separated protein bands are transferred onto PVDF membranes and blotted against different antibodies. The blots are scanned, and the band intensities are quantified (e.g., by using GelQuant.NET software provided by biochemlabsolutions.com). The relative mean intensity of target proteins is expressed after normalization to the intensity of glyceraldehyde-3-phosphate dehydrogenase bands.
Western Blot Analysis. Western blot analysis was performed essentially as described previously. The cells treated with indicated compounds were lysed in Radioimmunoprecipitation Assay Protein Lysis and Extraction Buffer (25 mmol/L Tris.HCl, pH 7.6, 150 mmol/L NaCl, 1% Nonidet P-40, 1% sodium deoxycholate, and 0.1% sodium dodecyl sulfate) containing proteinase inhibitor cocktail (Roche Diagnostics, Mannheim, Germany). Equal amounts of total protein were electrophoresed through 10% SDS-polyacrylamide gels after determination of protein concentration by BCA assay (Fisher Scientific, Pittsburgh, PA). The separated protein bands were transferred onto PVDF membranes (GE Healthcare Life Sciences, Marlborough, MA) and blotted against different antibodies, as indicated. The blots were scanned, and the band intensities were quantified using GelQuant.NET software provided by biochemlabsolutions.com. The relative mean intensity of target proteins was expressed after normalization to the intensity of glyceraldehyde-3-phosphate dehydrogenase bands.

Sequence of ER (P03372 whole entry): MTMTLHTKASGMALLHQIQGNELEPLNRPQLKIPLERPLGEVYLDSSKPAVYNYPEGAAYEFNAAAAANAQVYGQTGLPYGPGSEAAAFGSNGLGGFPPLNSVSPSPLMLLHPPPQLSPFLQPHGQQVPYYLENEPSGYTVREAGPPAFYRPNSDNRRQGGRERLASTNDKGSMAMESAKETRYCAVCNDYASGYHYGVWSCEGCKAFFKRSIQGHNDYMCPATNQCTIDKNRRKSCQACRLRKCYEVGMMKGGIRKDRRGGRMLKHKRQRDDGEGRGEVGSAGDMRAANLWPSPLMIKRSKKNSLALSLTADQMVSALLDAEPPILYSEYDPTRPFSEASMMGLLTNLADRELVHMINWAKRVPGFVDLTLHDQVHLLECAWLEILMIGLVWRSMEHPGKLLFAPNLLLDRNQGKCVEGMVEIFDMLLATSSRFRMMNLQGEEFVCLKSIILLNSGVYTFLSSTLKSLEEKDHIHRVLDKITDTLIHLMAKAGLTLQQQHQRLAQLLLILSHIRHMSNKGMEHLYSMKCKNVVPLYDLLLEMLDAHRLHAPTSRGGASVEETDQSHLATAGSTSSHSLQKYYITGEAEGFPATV

Q: With `C[C@@H]1Cc2c([nH]c3ccccc23)[C@@H](c2c(F)cc(N3CCN(CCN4Cc5cc6c(cc5C4)C(=O)N(C4CCC(=O)NC4=O)C6)CC3)cc2F)N1CC(F)F` (stereo partly drawn) [Compound B5, 3-(6-(2-(4-(4-((1R,3R)-2-(2,2-difluoroethyl)-3-methyl-2,3,4,9-tetrahydro-1H-pyrido[3,4-b]indol-1-yl)-3,5-difluorophenyl)piperazin-1-yl)ethyl)-1-oxo-3,5,6,7-tetrahydropyrrolo[3,4-f]isoindol-2(1H)-yl)piperidine-2,6-dione] as the compound, how does the “Traditional Western Degradation Potency” value read?
A: B (“B”: 10-100 nM)

Q: `C[C@@H]1Cc2c([nH]c3ccccc23)[C@@H](c2c(F)cc(N3CCC(N4CC(CC(=O)N5Cc6cc7c(cc6C5)C(=O)N(C5CCC(=O)NC5=O)C7=O)C4)CC3)cc2F)N1CC(F)F` (stereo partly drawn) [Compound B6, 6-(2-(1-(1-(4-((1R,3R)-2-(2,2-difluoroethyl)-3-methyl-2,3,4,9-tetrahydro-1H-pyrido[3,4-b]indol-1-yl)-3,5-difluorophenyl)piperidin-4-yl)azetidin-3-yl)acetyl)-2-(2,6-dioxopiperidin-3-yl)-6,7-dihydropyrrolo[3,4-f]isoindole-1,3(2H,5H)-dione] was tested. Which “Traditional Western Degradation Potency” value did it give?
A: C (“C”: >100 nM)

Q: `C[C@@H]1Cc2c([nH]c3ccccc23)[C@@H](c2c(F)cc(N3CCC(N4CC(CC(=O)N5Cc6cc7c(cc6C5)C(=O)N(C5CCC(=O)NC5=O)C7)C4)CC3)cc2F)N1CC(F)F` (stereo partly drawn) [Compound B7, 3-(6-(2-(1-(1-(4-((1R,3R)-2-(2,2-difluoroethyl)-3-methyl-2,3,4,9-tetrahydro-1H-pyrido[3,4-b]indol-1-yl)-3,5-difluorophenyl)piperidin-4-yl)azetidin-3-yl)acetyl)-1-oxo-3,5,6,7-tetrahydropyrrolo[3,4-f]isoindol-2(1H)-yl)piperidine-2,6-dione] was tested. Which “Traditional Western Degradation Potency” value did it give?
A: B (“B”: 10-100 nM)

Q: With `C[C@@H]1Cc2c([nH]c3ccccc23)[C@@H](c2c(F)cc(N3CC4(CN(CC(=O)N5Cc6cc7c(cc6C5)C(=O)N(C5CCC(=O)NC5=O)C7)C4)C3)cc2F)N1CC(F)F` (stereo partly drawn) [Compound B8, 3-(6-(2-(6-(4-((1R,3R)-2-(2,2-difluoroethyl)-3-methyl-2,3,4,9-tetrahydro-1H-pyrido[3,4-b]indol-1-yl)-3,5-difluorophenyl)-2,6-diazaspiro[3.3]heptan-2-yl)acetyl)-1-oxo-3,5,6,7-tetrahydropyrrolo[3,4-f]isoindol-2(1H)-yl)piperidine-2,6-dione] as the compound, how does the “Traditional Western Degradation Potency” value read?
A: A (“A”: <10 nM)

Q: For `C[C@@H]1Cc2c([nH]c3ccccc23)[C@@H](c2c(F)cc(N3CC4(CCN(C(=O)CN5Cc6cc7c(cc6C5)C(=O)N(C5CCC(=O)NC5=O)C7)C4)C3)cc2F)N1CC(F)F` (stereo partly drawn) [Compound B9, 3-(6-(2-(2-(4-((1R,3R)-2-(2,2-difluoroethyl)-3-methyl-2,3,4,9-tetrahydro-1H-pyrido[3,4-b]indol-1-yl)-3,5-difluorophenyl)-2,6-diazaspiro[3.4]octan-6-yl)-2-oxoethyl)-1-oxo-3,5,6,7-tetrahydropyrrolo[3,4-f]isoindol-2(1H)-yl)piperidine-2,6-dione], which “Traditional Western Degradation Potency” value is on record?
A: A (“A”: <10 nM)

Q: Which “Traditional Western Degradation Potency” value does the source give for `C[C@@H]1Cc2c([nH]c3ccccc23)[C@@H](c2c(F)cc(N3CCC4(CCN(C(=O)CN5Cc6cc7c(cc6C5)C(=O)N(C5CCC(=O)NC5=O)C7)C4)C3)cc2F)N1CC(F)F` (stereo partly drawn) [Compound B11, 3-(6-(2-(7-(4-((1R,3R)-2-(2,2-difluoroethyl)-3-methyl-2,3,4,9-tetrahydro-1H-pyrido[3,4-b]indol-1-yl)-3,5-difluorophenyl)-2,7-diazaspiro[4.4]nonan-2-yl)-2-oxoethyl)-1-oxo-3,5,6,7-tetrahydropyrrolo[3,4-f]isoindol-2(1H)-yl)piperidine-2,6-dione] here?
A: B (“B”: 10-100 nM)

Q: Which “Traditional Western Degradation Potency” value does the source give for `C[C@@H]1Cc2c([nH]c3ccccc23)[C@@H](c2c(F)cc(N3CC4(CCCN(C(=O)CN5Cc6cc7c(cc6C5)C(=O)N(C5CCC(=O)NC5=O)C7)C4)C3)cc2F)N1CC(F)F` (stereo partly drawn) [Compound B12, 3-(6-(2-(2-(4-((1R,3R)-2-(2,2-difluoroethyl)-3-methyl-2,3,4,9-tetrahydro-1H-pyrido[3,4-b]indol-1-yl)-3,5-difluorophenyl)-2,6-diazaspiro[3.5]nonan-6-yl)-2-oxoethyl)-1-oxo-3,5,6,7-tetrahydropyrrolo[3,4-f]isoindol-2(1H)-yl)piperidine-2,6-dione] here?
A: C (“C”: >100 nM)

Q: With `C[C@@H]1Cc2c([nH]c3ccccc23)[C@@H](c2c(F)cc(N3CCCC4(CN(C(=O)CN5Cc6cc7c(cc6C5)C(=O)N(C5CCC(=O)NC5=O)C7)C4)C3)cc2F)N1CC(F)F` (stereo partly drawn) [Compound B13, 3-(6-(2-(6-(4-((1R,3R)-2-(2,2-difluoroethyl)-3-methyl-2,3,4,9-tetrahydro-1H-pyrido[3,4-b]indol-1-yl)-3,5-difluorophenyl)-2,6-diazaspiro[3.5]nonan-2-yl)-2-oxoethyl)-1-oxo-3,5,6,7-tetrahydropyrrolo[3,4-f]isoindol-2(1H)-yl)piperidine-2,6-dione] as the compound, how does the “Traditional Western Degradation Potency” value read?
A: B (“B”: 10-100 nM)

Q: Which “Traditional Western Degradation Potency” value does the source give for `C[C@@H]1Cc2c([nH]c3ccccc23)[C@@H](c2c(F)cc(N3CC4(CN(C(=O)CN5Cc6cc7c(cc6C5)C(=O)N(C5CCC(=O)NC5=O)C7)C4)C3)cc2F)N1CC(F)F` (stereo partly drawn) [Compound B14, 3-(6-(2-(6-(4-((1R,3R)-2-(2,2-difluoroethyl)-3-methyl-2,3,4,9-tetrahydro-1H-pyrido[3,4-b]indol-1-yl)-3,5-difluorophenyl)-2,6-diazaspiro[3.3]heptan-2-yl)-2-oxoethyl)-1-oxo-3,5,6,7-tetrahydropyrrolo[3,4-b]isoindol-2(1H)-yl)piperidine-2,6-dione] here?
A: A (“A”: <10 nM)

Q: How did the “Traditional Western Degradation Potency” value turn out when `C[C@@H]1Cc2c([nH]c3ccccc23)[C@@H](c2c(F)cc(N3CCC4(CN(C(=O)CN5Cc6cc7c(cc6C5)C(=O)N(C5CCC(=O)NC5=O)C7)C4)C3)cc2F)N1CC(F)F` (stereo partly drawn) [Compound B15, 3-(6-(2-(6-(4-((1R,3R)-2-(2,2-difluoroethyl)-3-methyl-2,3,4,9-tetrahydro-1H-pyrido[3,4-b]indol-1-yl)-3,5-difluorophenyl)-2,6-diazaspiro[3.4]octan-2-yl)-2-oxoethyl)-1-oxo-3,5,6,7-tetrahydropyrrolo[3,4-f]isoindol-2(1H)-yl)piperidine-2,6-dione] was run?
A: A (“A”: <10 nM)

Q: Which “Traditional Western Degradation Potency” value does the source give for `C[C@@H]1Cc2c([nH]c3ccccc23)[C@@H](c2c(F)cc(N3CC4(CCN(CC(=O)N5Cc6cc7c(cc6C5)C(=O)N(C5CCC(=O)NC5=O)C7)C4)C3)cc2F)N1CC(F)F` (stereo partly drawn) [Compound B16, 3-(6-(2-(2-(4-((1R,3R)-2-(2,2-difluoroethyl)-3-methyl-2,3,4,9-tetrahydro-1H-pyrido[3,4-b]indol-1-yl)-3,5-difluorophenyl)-2,6-diazaspiro[3.4]octan-6-yl)acetyl)-1-oxo-3,5,6,7-tetrahydropyrrolo[3,4-f]isoindol-2(1H)-yl)piperidine-2,6-dione] here?
A: A (“A”: <10 nM)

Q: How did the “Traditional Western Degradation Potency” value turn out when `C[C@@H]1Cc2c([nH]c3ccccc23)[C@@H](c2c(F)cc(N3CC4(CCN(CC(=O)N5Cc6cc7c(cc6C5)C(=O)N(C5CCC(=O)NC5=O)C7=O)C4)C3)cc2F)N1CC(F)F` (stereo partly drawn) [Compound B17, 6-(2-(2-(4-((1R,3R)-2-(2,2-difluoroethyl)-3-methyl-2,3,4,9-tetrahydro-1H-pyrido[3,4-b]indol-1-yl)-3,5-difluorophenyl)-2,6-diazaspiro[3.4]octan-6-yl)acetyl)-2-(2,6-dioxopiperidin-3-yl)-6,7-dihydropyrrolo[3,4-f]isoindole-1,3(2H,5H)-dione] was run?
A: B (“B”: 10-100 nM)

Q: With `C[C@@H]1Cc2c([nH]c3ccccc23)[C@@H](c2c(F)cc(N3CCC4(CCN(CC(=O)N5Cc6cc7c(cc6C5)C(=O)N(C5CCC(=O)NC5=O)C7=O)C4)C3)cc2F)N1CC(F)F` (stereo partly drawn) [Compound B19, 6-(2-(7-(4-((1R,3R)-2-(2,2-difluoroethyl)-3-methyl-2,3,4,9-tetrahydro-1H-pyrido[3,4-b]indol-1-yl)-3,5-difluorophenyl)-2,7-diazaspiro[4.4]nonan-2-yl)acetyl)-2-(2,6-dioxopiperidin-3-yl)-6,7-dihydropyrrolo[3,4-f]isoindole-1,3(2H,5H)-dione] as the compound, how does the “Traditional Western Degradation Potency” value read?
A: C (“C”: >100 nM)

Q: How did the “Traditional Western Degradation Potency” value turn out when `C[C@@H]1Cc2c([nH]c3ccccc23)[C@@H](c2c(F)cc(N3CC4(CCN(C(=O)CN5Cc6cc7c(cc6C5)C(=O)N(C5CCC(=O)NC5=O)C7=O)C4)C3)cc2F)N1CC(F)F` (stereo partly drawn) [Compound B20, 6-(2-(2-(4-((1R,3R)-2-(2,2-difluoroethyl)-3-methyl-2,3,4,9-tetrahydro-1H-pyrido[3,4-b]indol-1-yl)-3,5-difluorophenyl)-2,6-diazaspiro[3.4]octan-6-yl)-2-oxoethyl)-2-(2,6-dioxopiperidin-3-yl)-6,7-dihydropyrrolo[3,4-f]isoindole-1,3(2H,5H)-dione] was run?
A: A (“A”: <10 nM)
